Where a SMILES comes first, the peptide text is derived from it.
Tested on: GP120-Mediated Neurotoxicity
Assay: Neuronal survival assay with 1 pM gp120 (count of neuron-specific enolase positive cells)
Type: cell-based
Conditions: together with 1 pM gp120 (RF isolate), primary cultures of mixed rat neurons glia; for inhibition of neuronal death caused by gp120 (in words): dose-dependent; for protection against gp120 neuronal death: peptide at 10 μM
Excerpt: Materials: A gp120 isolate RFII was obtained from Dr. P. Nara, NCI, NIH. All of the gp120's are purified, >95% homogeneous and previously tested for neurotoxicity with cultured neurons and were used at 1 pM final concentration in cultures of neurons. Peptides of the formula Ile-Lys-Glu-Tyr-Phe-Thr-Ser (SEQ. ID NO: 2), Ile-Lys-Glu-Tyr-Phe (SEQ. ID NO: 3), and Leu-Glu-Ser-Tyr-Thr (SEQ. ID NO: 1), were obtained from Peninsula Labs, CA. and synthesized by solid-phase Merrified methods and purified to greater than 95% homogeneity by two HPLC methods and structure confirmed by MASS Spectroscopy Analysis.
Neuronal cell culture: Dissociated hippocampal cultures are prepared from neonatal (day 2) rat cortex and hippocampus by known methods. Sterilely dissected brain tissue is minced and treated with 0.125% trypsin for 30 minutes then gently triturated with fire-polished Pasteur pipes and plated in six-well trays (35 mm^2) at low density (50,000 cells/35 mm^2 dish) upon confluent layers of astrocytes in medium containing D-MEM, penicillin (25 U/ml), streptomycin ([…]), D-glucose (0.6%), and 10% heat-inactivated fetal calf serum (HyClone Laboratories), supplemented with insulin, transferrin, selenium, corticosterone, and triiodothyronine. Medium is changed after 3 days. At 6 days, half the medium is exchanged for fresh medium. The astrocyte feeder layers were prepared from the cortexes of neonatal rats following dissection and trituration. Plating was 2.5×10^2 cells per well. Feeder layers were grown in Eagles's minimal essential medium (Formula No. 82-0234DJ, Gibco) with 10% fetal calf serum until confluent (7-14 days). With this medium the feeder cultures were free of neurons and consisted of flat cells that were stained by antibodies to glial fibrillary acidic protein, a standard immunocytochemical marker for astroglia. When hippocampal or cortical cells were added to the confluent feeder layer, the medium was changed to the following composition: 5% horse serum and MEM supplement with defined medium components. The hippocampal or cortical cultures were treated with 5′-fluoro-2′-deoxyuridine (15 ug/ml plus uridine, 35 ug/ml) to suppress the overgrowth of background cells and allow the establishment of neurons. The neurons in these cultures are post-mitotic. The neuronal cultures were allowed to grow for 1 week prior to the beginning of the experimental period. Before treating the cultures, a complete change of medium was given.
Neuronal survival assay: GP120's, with or without added peptides, were diluted in phosphate buffered saline and added to the cultures, which were treated only once for a four day period. At termination, cultures were fixed with glutaraldehyde as previously described. At the end of the test period, neuronal survival was assessed by immunohistochemical detection of neuron-specific enolase positive cells (neurons). Cultures were counted in a blinded fashion without knowledge of sample treatment in 40 fields at pre-determined coordinate locations. The total area counted is 50 mm^2. Each value reported is the mean±the standard error of 3-4 determinations. Control (saline treated) wells from these cultures have 395±20 neurons. Statistical comparisons between experimental and control culture neuronal cell counts are via analysis of variance with the Student-Newman-Kuels multiple comparison of means test.
The dotted line in FIG. 1 represents the mean number of neurons in control cultures.

| Molecule | inhibition of neuronal death caused by gp120 (in words) | protection against gp120 neuronal death | EC50 (read-out: EC50 for preventing neuronal loss caused by gp120, four day period) [nM] |
| --- | --- | --- | --- |
| Leu-Glu-Ser-Tyr-Thr (LESYT; mammalian) | preventing neuronal loss | partially protective |  |
| Ile-Lys-Glu-Tyr-Phe (IKEYF; mammalian) [shorter pentapeptide used to show specificity] | inactive |  |  |
| CC[C@H](C)[C@H](N)C(=O)N[C@@H](CCCCN)C(=O)N[C@@H](CCC(=O)O)C(=O)N[C@@H](Cc1ccc(O)cc1)C(=O)N[C@@H](Cc1ccccc1)C(=O)N[C@H](C(=O)N[C@@H](CO)C(=O)O)[C@@H](C)O [IKEYFTS, Ile-Lys-Glu-Tyr-Phe-Thr-Ser] (H-IKEYFTS-OH; N-terminus and C-terminus assumed) | preventing neuronal loss | fully protective | 100 |
